In patent US20140228398A1, “COMBINATIONS OF ALPHA 7 NICOTINIC ACETYLCHOLINE RECEPTOR ACTIVATORS AND mGluR5 ANTAGONISTS FOR USE IN DOPAMINE INDUCED [sequence] IN PARKINSON'S DISEASE” (NOVARTIS AG, priority 2011, published 2014):

What was measured:
[1] = Oral bioavailability and brain penetration in mice; format: in vivo; settings: 30 μmol/kg p.o., ± SD
Method: […] Male mice (30-35g, OF1/ICstrain) were sacrificed at indicated time points after oral administration. Trunk-blood was collected in EDTA-containing tubes and the brain was removed and immediately frozen on dry ice. To 100 μl plasma 10 μl internal standard (1.0 pmol of a compound with solubility and ionization properties similar to test compounds) was added and extracted three times with 500 μl dichloromethane. The combined extracts were then dried under a stream of nitrogen and re-dissolved in 100 μl acetonitrile/water (70% acetonitrile). Brains were weighed and homogenized in water (1:5 w/v). Two 100 μl aliquots of each homogenate+10 μl of internal standard (same standard as used for the plasma samples) were extracted three times with 500 μl dichloromethane and further processed as the plasma samples. Samples were separated on Beckmann high-performance liquid chromatography equipment system with an autosampler (Gilson 233XL).
The limit of detection (LOD), defined as the lowest concentration of the extracted standard sample with a signal to noise ratio of ˜3.

mice = experiment: Social Recognition Test in mice; format: in vivo, mouse; settings: oral, dose 3 mg/kg, familiar partner at 24 h vs time 0
Method: Social interactions between two experimental animals are influenced by their degree of familiarity: the better they know each other, the less time they spend on mutual scrutiny at each meeting. […] Memory enhancing agents (i.e. oxiracetam) facilitate learning to the extent that the previously met (familiar) partner is still remembered after 24 h, whereas in vehicle treated control animals the memory usually fades after less than 1 hour (Thor and Holloway, 1982) or after 2-3 hours.
Baseline-test: Pairs consisting of one adult and one young mouse were assigned at random to the experimental and control groups. In each pair only the adult mouse was orally treated 1 hour before the trial with either vehicle or the test compound. The duration of active contacts of the adult mouse with the young mouse was manually recorded over a period of 3 min, including the following behavioural, approach-related items: sniffing, nosing, grooming, licking, pawing and playing, anogenital exploration and orientation toward the young mouse; orientation, thereby, was defined as tip of nose of the adult mouse less than approximately 1 cm distant from the young mouse's body. […]

parkinsonian primates [2] = experiment: Movement disorder model: antidyskinetic effect in parkinsonian (MPTP) primates; format: in vivo, cynomolgus monkeys (Macaca fascicularis); settings: for locomotor response / mean parkinsonian score: parkinsonian primates; for mean parkinsonian score: reduced from 9.4
Method: Female ovariectomized cynomolgus monkeys (Macaca fascicularis) are used in the assessment. The animals can be rendered parkinsonian by continuous infusion of 1-methyl-4-phenyl-1,2,3,6-tetrahydropyridine (MPTP) until they develop a stable parkinsonian syndrome. After recuperation, animals are treated daily with levodopa until clear and reproducible dyskinesias are developed.
Monkeys are observed through a one-way screen window in their home cage. They are observed and scored repeatedly at baseline and after a standard s.c. dose of levodopa. Locomotor activity is assessed and followed with an electronic monitoring system. Antiparkinsonian responses are evaluated by measuring the locomotor activity and a Parkinson disability scale (see Hadj Tahar A et al, Clin Neuropharmacol 2000; 23:195-202; and Samadi P et al, Neuropharmacology 2003; 45:954-963). Dyskinesias are closely monitored and scored according to a dyskinesia rating scale (also described in Hadj Tahar A et al; and Samadi P et al) every 15 minutes until the end of the effect. The doses of levodopa are chosen to induce motor activation and reproducible dyskinesia but no excessive agitation.
Monkeys are observed for at least two hours following an oral administration of vehicle. On a subsequent day, the dose of levodopa selected is tested once. The animals are observed (with measures of parkinsonian and dyskinetic scores) for the entire duration of the levodopa effect and are also monitored for locomotor activity. This provides vehicle control values as well as levodopa antiparkinsonian and dyskinesia response data for comparison with combinations of a α7-nAChR agonist/positive allosteric modulator and levodopa. The monkeys are then tested with a α7-nAChR agonist/positive allosteric modulator in combination with a fixed dose of levodopa. A suspension for oral administration of the α7-nAChR agonist/positive allosteric modulator is administered before levodopa. After each dose, the animals are observed (with measures of parkinsonian and dyskinetic scores) for the entire duration of effect and monitored for locomotor activity or any change in behavior (e.g. circling, excitement, lethargy and sleepiness).
Using this protocol, compound A-1 at a dose of 20 mg/kg was tested. Results based on five monkeys (levodopa/benserazide doses: 22.5/50 mg; 65/50 mg; 30/50 mg; 35/50 mg; and 25/50 mg) are shown in FIGS. 1-4.
For experiments shown in FIGS. 5 and 6 parkinsonian primates were treated orally with 10 mg/kg MPEP, 20 mg/kg JN403 and a combination of MPEP (10 mg/kg) and JN403 (20 mg/kg). In said experiments, compound MPEP increased the locomotor response from 230 count over 4 h to 810.

parkinsonian primates [3] = settings: data published in WO2009047296 and Gregoire et al 2011; cited from earlier work
[4] = compound A-1 20 mg/kg oral with levodopa/benserazide, five monkeys

| Compound | Brain ([1]; 0.5 hour) [pmol/g] | Brain ([1]; 1 hour) [pmol/g] | Brain ([1]; 2 hour) [pmol/g] | Brain ([1]; 4 hour) [pmol/g] | Brain ([1]; 24 hour) [pmol/g] | Brain ([1]; 0.25 hour) [pmol/g] | Brain ([1]; 8 hour) [pmol/g] | other results |
| --- | --- | --- | --- | --- | --- | --- | --- | --- |
| C[C@H](OC(=O)N[C@@H]1CN2CCC1CC2)c1ccccc1F [A-1, (S)-(1-aza-bicyclo[2.2.2]oct-3-yl)-carbamic acid (S)-1-(2-fluoro-phenyl)-ethyl ester] | 706.3 ± 153.4 | 573.7 ± 109.3 | 191.9 ± 34.9 | 104.6 ± 39.6 | 9.1 ± 2.7 | – | – | Plasma ([1]; 0.5 hour): 634.9 ± 261.3 pmol/mL; Plasma ([1]; 1 hour): 684.7 ± 339.6 pmol/mL; Plasma ([1]; 2 hour): 168.2 ± 91.3 pmol/mL; Plasma ([1]; 4 hour): 85.0 ± 54.3 pmol/mL; Brain ([1]; 6 hour): 40.5 ± 12.1 pmol/g; Plasma ([1]; 6 hour): 29.5 ± 13.8 pmol/mL; Plasma ([1]; 24 hour): 3.8 ± 0.6 pmol/mL; Reduction in time scrutinizing in % ± SEM at 24 h (mice): 52 ± 4%; antiparkinsonian activity of levodopa (antiparkinsonian score) (parkinsonian primates [2]; [4]): does not lower the antiparkinsonian activity of levodopa; onset of action of levodopa (Elapsed Time after Levodopa Administration) (parkinsonian primates [2]; [4]): does not delay the onset of action of levodopa; Duration of Levodopa-Response (parkinsonian primates [2]; compound A-1 20 mg/kg oral with levodopa/benserazide, five monkeys, extended from 230 minutes): 265 min; Mean Dyskinesia Score (total period) (parkinsonian primates [2]; compound A-1 20 mg/kg oral with levodopa/benserazide, five monkeys, reduced from 2.8): 2.1; locomotor response (parkinsonian primates [2]; oral 20 mg/kg JN403, baseline 230 count over 4 h): no effect; mean parkinsonian score (parkinsonian primates [2]; oral 20 mg/kg JN403): 9.0 |
| C[C@H]1[C@H](Oc2ccc(-c3ccc4[nH]ccc4c3)nn2)C2CCN1CC2 [B-13, (2S,3R)-3-[6-(1H-indol-5-yl)-pyridazin-3-yloxy]-2-methyl-1-aza-bicyclo[2.2.2]octane] | 2960 ± 706 | 2940 ± 335 | 1260 ± 172 | 379 ± 134 | 13 ± 4 | 1884 ± 291 | 93 ± 30 | – |
| c1cc2cc(-c3cnc(O[C@H]4CCN5CCC[C@@H]4C5)nc3)ccc2[nH]1 [C-1, (4S,5R)-4-[5-(1H-indol-5-yl)-pyrimidin-2-yloxy]-1-aza-bicyclo[3.3.1]nonane] | 1405 ± 539 | 1458 ± 189 | 1478 ± 259 | 842 ± 187 | – | 620 ± 221 | 362 ± 62 | – |
| Cc1cc(/C(=C/Nc2ccc(Cl)cc2)C(=O)Nc2ccc(Cl)cc2)on1 [E-1, (Z)—N-(4-Chloro-phenyl)-3-(4-chloro-phenylamino)-2-(3-methyl-isoxazol-5-yl)-acrylamide] | – | – | – | – | – | – | – | L-dopa induced dyskinesias (parkinsonian primates [3]): able to reduce L-dopa induced dyskinesias |
| Cc1cccc(C#Cc2ccccc2)n1 [F-2, 2-Methyl-6-phenylethynyl-pyridine, reference compound] | – | – | – | – | – | – | – | locomotor response (parkinsonian primates [2]; oral 10 mg/kg MPEP, increased from 230): 810 count over 4 h; mean parkinsonian score (parkinsonian primates [2]; oral 10 mg/kg MPEP): 8.2 |
